Active and inactive are the calls of the source. No rule for the calls is given here.

The results in this text go back to PubChem BioAssay AID743490 (The Scripps Research Institute Molecular Screening Center, 2014).

For this assay, the target named is Trace amine-associated receptor 1 (Homo sapiens) (UniProt Q96RJ0). Nature of the assay: loss of TAAR1 response after agonism – cell-based, fluorescence, human, MedChem round 1, counter-screen for TAAR1 agonist project, SAR follow-up (AID 743490). The settings on record: hTAAR1 cells, desensitization of agonist response.
Sequence of Trace amine-associated receptor 1 (Homo sapiens) (Q96RJ0 whole entry, looked up): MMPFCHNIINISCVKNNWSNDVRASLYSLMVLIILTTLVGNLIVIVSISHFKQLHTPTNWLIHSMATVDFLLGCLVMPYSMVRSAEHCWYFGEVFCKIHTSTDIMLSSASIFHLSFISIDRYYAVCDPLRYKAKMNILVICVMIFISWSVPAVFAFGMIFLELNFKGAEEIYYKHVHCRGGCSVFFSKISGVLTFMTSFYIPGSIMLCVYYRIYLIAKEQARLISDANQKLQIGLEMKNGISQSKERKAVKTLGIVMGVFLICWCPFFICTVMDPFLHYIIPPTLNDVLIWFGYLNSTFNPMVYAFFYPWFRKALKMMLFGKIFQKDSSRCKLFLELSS
The IC50 is the concentration at which inhibition is half-maximal. As to `O=C(CCN1C[C@@H](C(=O)O)[C@H](c2ccccc2)C1)NC1CCCC1`, the IC50 was > 29.9 µM (inactive). In the case of `O=C(CCN1CCC(c2ccccc2)C1)c1ccccc1` (stereo unspecified), the IC50 entry was “inactive”. The result for `CC(CN1CCCC1Cc1ccccc1)C(=O)c1ccc2c(c1)OCCO2` (stereo unspecified) reads > 29.9 µM (inactive). `Cc1ccc(C(=O)CCN2CCC(c3ccccc3)C2)cc1` (stereo unspecified): the IC50 is > 29.9 µM (inactive). Turning to `O=C(CCN1CCC(O)(c2ccccc2)C1)c1ccc2c(c1)OCCO2` (stereo unspecified), the IC50 was > 29.9 µM (inactive). On to `O=C(CCN1CCC(O)(c2ccc(F)cc2)C1)c1ccc2c(c1)OCCO2` (stereo unspecified), for which the IC50 was > 29.9 µM (inactive). `NC(=O)CCN1C[C@H](c2ccccc2)[C@@H]2[C@H]1C1CCN2CC1`: the IC50 is > 29.9 µM (inactive). As to `O=C(CCN1C[C@@H](C(=O)O)[C@H](c2cccc(F)c2)C1)NC1CC1`, the IC50 was > 29.9 µM (inactive). As to `CC1CN(CCC(=O)c2ccc3c(c2)OCCO3)CC1c1ccccc1` (stereo unspecified), the IC50 was 4.4 µM. Consider `O=C(CCN1C[C@@H](C(=O)O)[C@H](c2ccccc2)C1)NCc1cccs1`, for which the IC50 is > 29.9 µM (inactive). Turning to `CC(CN1CCC(c2ccccc2)C1)C(=O)c1ccc2c(c1)OCCO2` (stereo unspecified), the IC50 is > 29.9 µM (inactive).
